Measurements reported in the NIST ThermoML archive (doi:10.1021/acs.jced.7b00712).

Conditions: Liquid, Brillouin light scattering

CCCCCCCC [octane]
Conditions | speed of sound [m/s]
296.97 K, 100 kPa | 1173
297.28 K, 4000 kPa | 1196.5
297.34 K, 7000 kPa | 1222
297.35 K, 12000 kPa | 1250.8
297.38 K, 10000 kPa | 1242.7
303.33 K, 7000 kPa | 1199.7
303.38 K, 10000 kPa | 1213.7
303.42 K, 12000 kPa | 1233
303.53 K, 4000 kPa | 1172.7
303.61 K, 100 kPa | 1151.7
318.11 K, 10000 kPa | 1164.8
318.3 K, 4000 kPa | 1121.2
318.35 K, 7000 kPa | 1141.4
318.37 K, 100 kPa | 1089.5
318.37 K, 12000 kPa | 1184.5
332.26 K, 4000 kPa | 1066.7
332.32 K, 10000 kPa | 1108.6
332.33 K, 7000 kPa | 1089.1
332.5 K, 100 kPa | 1029.1
332.56 K, 12000 kPa | 1128.3
347.29 K, 7000 kPa | 1031.9
347.37 K, 10000 kPa | 1053.4
347.4 K, 4000 kPa | 1007.2
347.46 K, 12000 kPa | 1072.7
347.68 K, 100 kPa | 970.1
362.12 K, 10000 kPa | 1006.2
362.17 K, 7000 kPa | 979.6
362.28 K, 4000 kPa | 955.4
362.53 K, 100 kPa | 912.3
363.67 K, 12000 kPa | 1027.8
377.03 K, 4000 kPa | 909.7
377.33 K, 7000 kPa | 933.5
377.35 K, 10000 kPa | 960.5
377.5 K, 100 kPa | 855.4
379.75 K, 12000 kPa | 973.9
390.8 K, 4000 kPa | 860.1
391 K, 7000 kPa | 892.3
391.09 K, 10000 kPa | 917.4
391.61 K, 100 kPa | 806.4
394.67 K, 12000 kPa | 920.8
403.71 K, 12000 kPa | 896.1
407.38 K, 4000 kPa | 802.1
407.45 K, 10000 kPa | 865.2
407.46 K, 7000 kPa | 836.9
412.59 K, 4000 kPa | 786.2
412.65 K, 7000 kPa | 818.8
412.71 K, 10000 kPa | 846.7
414.33 K, 12000 kPa | 864
422.61 K, 10000 kPa | 818.2
422.69 K, 12000 kPa | 844.3
422.73 K, 4000 kPa | 747.2
422.88 K, 7000 kPa | 784.5
431.77 K, 12000 kPa | 815.2
431.82 K, 4000 kPa | 720.1
431.88 K, 7000 kPa | 754.2
431.92 K, 10000 kPa | 789.8
442.23 K, 4000 kPa | 682.1
442.49 K, 7000 kPa | 723.8
442.65 K, 10000 kPa | 755.7
442.73 K, 12000 kPa | 779.7
452.55 K, 4000 kPa | 646.4
452.64 K, 7000 kPa | 689.9
452.77 K, 10000 kPa | 728.1
452.88 K, 12000 kPa | 750.8
462.37 K, 4000 kPa | 614.7
462.45 K, 7000 kPa | 660.1
462.61 K, 12000 kPa | 724.2
465.54 K, 10000 kPa | 695.8
472.05 K, 4000 kPa | 579.7
472.15 K, 7000 kPa | 631.6
472.28 K, 10000 kPa | 676.9
472.38 K, 12000 kPa | 693.8
482.98 K, 4000 kPa | 543
483.04 K, 7000 kPa | 599.7
483.12 K, 10000 kPa | 646.1
483.14 K, 12000 kPa | 672.7
493.41 K, 4000 kPa | 503.5
493.48 K, 7000 kPa | 565.4
493.62 K, 10000 kPa | 614.7
493.73 K, 12000 kPa | 645
502.54 K, 4000 kPa | 477.8
502.73 K, 7000 kPa | 537.1
502.95 K, 10000 kPa | 590.5
503.17 K, 12000 kPa | 616.5
513 K, 4000 kPa | 439.1
513.26 K, 7000 kPa | 506.5
513.46 K, 10000 kPa | 563.1
513.67 K, 12000 kPa | 591.5
522.92 K, 4000 kPa | 407.7
523.17 K, 12000 kPa | 570.6
523.46 K, 7000 kPa | 478.6
523.6 K, 10000 kPa | 533.3
532.23 K, 4000 kPa | 373.2
532.36 K, 7000 kPa | 450.6
532.59 K, 10000 kPa | 511.4
532.79 K, 12000 kPa | 545.1
537.4 K, 4000 kPa | 354.7
537.75 K, 7000 kPa | 436.8
538.1 K, 10000 kPa | 497.5
538.41 K, 12000 kPa | 530.4
542.87 K, 4000 kPa | 337.8
543.27 K, 12000 kPa | 520.1
543.83 K, 7000 kPa | 422
544.52 K, 10000 kPa | 483.1
546.68 K, 4000 kPa | 325.7
547.82 K, 7000 kPa | 406.8
548.6 K, 10000 kPa | 471.5
549.27 K, 12000 kPa | 505.4
550.42 K, 4000 kPa | 315.2
552.01 K, 7000 kPa | 398.1
552.52 K, 10000 kPa | 465.1
552.88 K, 12000 kPa | 500.8
557.27 K, 4000 kPa | 290.5
558.19 K, 7000 kPa | 380.2
558.64 K, 10000 kPa | 448
559.37 K, 12000 kPa | 486.2
561.2 K, 4000 kPa | 276.7
561.87 K, 7000 kPa | 372.6
562.27 K, 10000 kPa | 441.3
562.71 K, 12000 kPa | 477.8
566.82 K, 7000 kPa | 356.5
566.96 K, 10000 kPa | 430.4
567.01 K, 4000 kPa | 257.3
567.1 K, 12000 kPa | 471
570.16 K, 4000 kPa | 245.6
570.2 K, 7000 kPa | 347.6
570.48 K, 10000 kPa | 424
570.75 K, 12000 kPa | 461
